Several values for one entry are separate records, joined by “and”; a condition that tells them apart may be missing. Equal entries are not always repeated. Toxic doses and inconclusive results are not listed.
System: P388 leukemia ip, CD2F1 mice, survival T/C
Assay: NCI In Vivo Anticancer Drug Screen. Data for tumor model P388 Leukemia (intraperitoneal) in CD2F1 (CDF1) mice
Conditions: endpoint: median survival time, higher = longer survival
In short: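 Mice carrying the transplanted tumor received test compound or vehicle. Survival was recorded in each group, and the value is the treated-group measurement divided by that of the vehicle-treated control group.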

[1] = dose: 60.0 mg/kg/injection, schedule: Q01DX005 (ip), vehicle: saline with Tween-80
[2] = dose: 120.0 mg/kg/injection, schedule: Q01DX005 (ip), vehicle: saline with Tween-80
[3] = dose: 240.0 mg/kg/injection, schedule: Q01DX005 (ip), vehicle: saline with Tween-80
[4] = dose: 50.0 mg/kg/injection, schedule: Q01DX005 (ip), vehicle: saline with Tween-80
[5] = dose: 100.0 mg/kg/injection, schedule: Q01DX005 (ip), vehicle: saline with Tween-80
[6] = dose: 50.0 mg/kg/injection, schedule: Q01DX009 (ip), vehicle: Klucel (hydroxypropylcellulose) (HPC)
[7] = dose: 100.0 mg/kg/injection, schedule: Q01DX009 (ip), vehicle: Klucel (hydroxypropylcellulose) (HPC)
[8] = dose: 100.0 mg/kg/injection, schedule: Q04DX002 (ip), vehicle: saline with Tween-80

c1cc(OCC2CO2)ccc1OCC1CO1 (stereo not given)
T/C (dose: 12.5 mg/kg/injection, schedule: Q01DX009 (ip), vehicle: saline with Tween-80): 95 % of control
T/C (dose: 25.0 mg/kg/injection, schedule: Q01DX009 (ip), vehicle: saline with Tween-80): 96 % of control
T/C (dose: 50.0 mg/kg/injection, schedule: Q01DX009 (ip), vehicle: saline with Tween-80): 113 % of control
T/C (dose: 100.0 mg/kg/injection, schedule: Q01DX009 (ip), vehicle: saline with Tween-80): 108 % of control and 111 % of control
T/C (dose: 100.0 mg/kg/injection, schedule: Q04DX003 (ip), vehicle: saline sonified): 100 % of control
T/C (dose: 200.0 mg/kg/injection, schedule: Q01DX009 (ip), vehicle: saline with Tween-80): 108 % of control
T/C (dose: 200.0 mg/kg/injection, schedule: Q04DX003 (ip), vehicle: saline sonified): 104 % of control
T/C (dose: 264.0 mg/kg/injection, schedule: Q04DX003 (ip), vehicle: saline with Tween-80): 118 % of control
T/C (dose: 400.0 mg/kg/injection, schedule: Q01DX009 (ip), vehicle: saline with Tween-80): 112 % of control
T/C (dose: 600.0 mg/kg/injection, schedule: Q04DX003 (ip), vehicle: saline with Tween-80): 113 % of control

C=CCN(CC=C)C(=O)Nc1cccc2c(NC(=O)N(CC=C)CC=C)cccc12
T/C [1]: 93 % of control
T/C [2]: 97 % of control
T/C [3]: 97 % of control

COCCN(CCOC)C(C(=O)Cc1ccccc1)c1ccccc1 (stereo not given)
T/C [4]: 99 % of control
T/C [5]: 101 % of control
T/C (dose: 200.0 mg/kg/injection, schedule: Q01DX005 (ip), vehicle: saline with Tween-80): 103 % of control

NCC(=O)CN.[Cl-].[Cl-].[Pt+2]
T/C (dose: 25.0 mg/kg/injection, schedule: Q04DX003 (ip), vehicle: other): 121 % of control
T/C (dose: 200.0 mg/kg/injection, schedule: Q04DX003 (ip), vehicle: other): 158 % of control
T/C (dose: 400.0 mg/kg/injection, schedule: Q04DX003 (ip), vehicle: other): 177 % of control

NC(=O)c1[nH]c(N=Nc2ccc(Cl)cc2)nc1N
T/C [6]: 92 % of control
T/C [7]: 100 % of control
T/C (dose: 200.0 mg/kg/injection, schedule: Q01DX009 (ip), vehicle: Klucel (hydroxypropylcellulose) (HPC)): 89 % of control

COc1ccccc1NC(=O)C(N=Nc1ccc(-c2nc3ccc(C)c(S(=O)(=O)O)c3s2)cc1S(=O)(=O)O)C(C)=O (stereo not given)
T/C (dose: 50.0 mg/kg/injection, schedule: Q01DX009 (ip), vehicle: saline): 104 % of control
T/C (dose: 100.0 mg/kg/injection, schedule: Q01DX009 (ip), vehicle: saline): 105 % of control
T/C (dose: 200.0 mg/kg/injection, schedule: Q01DX009 (ip), vehicle: saline): 109 % of control

C/C(=N\N/C(N)=N/S(=O)(=O)c1ccc(C)cc1)c1ccc(C)cc1
T/C (dose: 50.0 mg/kg/injection, schedule: Q04DX002 (ip), vehicle: saline with Tween-80): 100 % of control
T/C [8]: 97 % of control
T/C (dose: 200.0 mg/kg/injection, schedule: Q04DX002 (ip), vehicle: saline with Tween-80): 98 % of control

COc1ccc(CCNC(=O)C2CC3CCCCN3C2C)cc1OC (stereo not given)
T/C [1]: 99 % of control
T/C [2]: 95 % of control
T/C [3]: 94 % of control

[Cl][Pt+2][Cl].[NH-]CC(=O)O.[NH-]CC(=O)O
T/C (dose: 3.13 mg/kg/injection, schedule: Q01DX009 (ip), vehicle: water): 100 % of control and 121 % of control
T/C (dose: 6.25 mg/kg/injection, schedule: Q01DX009 (ip), vehicle: water): 113 % of control
T/C (dose: 12.5 mg/kg/injection, schedule: Q01DX009 (ip), vehicle: water): 123 % of control and 124 % of control
T/C (dose: 25.0 mg/kg/injection, schedule: Q01DX009 (ip), vehicle: water): 117 % of control
T/C (dose: 50.0 mg/kg/injection, schedule: Q01DX009 (ip), vehicle: water): 118 % of control and 121 % of control

O=C1C=CC2(C=C1)CCN=C(c1cc3c(cc1Br)OCO3)O2
T/C (dose: 25.0 mg/kg/injection, schedule: Q04DX002 (ip), vehicle: saline): 102 % of control
T/C (dose: 50.0 mg/kg/injection, schedule: Q04DX002 (ip), vehicle: saline): 103 % of control
T/C [8]: 108 % of control
T/C (dose: 100.0 mg/kg/injection, schedule: Q04DX002 (ip), vehicle: saline): 100 % of control

CCc1nc(N)nc(N)c1-c1ccc(Cl)c(NN=NC)c1
T/C (dose: 12.5 mg/kg/injection, schedule: Q01DX005 (ip), vehicle: saline with Tween-80): 109 % of control
T/C (dose: 25.0 mg/kg/injection, schedule: Q01DX005 (ip), vehicle: saline with Tween-80): 108 % of control
T/C [4]: 105 % of control and 110 % of control
T/C [5]: 112 % of control

NNC(=O)CCCO
T/C (dose: 50.0 mg/kg/injection, schedule: Q04DX003 (ip), vehicle: saline): 105 % of control
T/C (dose: 100.0 mg/kg/injection, schedule: Q04DX003 (ip), vehicle: saline): 98 % of control
T/C (dose: 200.0 mg/kg/injection, schedule: Q04DX003 (ip), vehicle: saline): 103 % of control
T/C (dose: 400.0 mg/kg/injection, schedule: Q04DX003 (ip), vehicle: saline): 105 % of control

Cc1nn(C(=O)c2ccncc2)c(C)c1N=Nc1ccc(S(N)(=O)=O)cc1
T/C [6]: 105 % of control
T/C [7]: 101 % of control

From PubChem BioAssay AID330 (DTP/NCI, 2004)
